Test [1] has as its target T1, Cbl-b (Homo sapiens, UniProt Q13191).
T1 construct: Cbl-b-HiBit KI Jurkat Cells were purchased from Promega; host or cells: Cbl-b-HiBiT knock-in Jurkat cells
Put plainly: Cbl-b Degradation Method B (Nano-Glo HiBiT lytic detection). It counts as cell-based. Particulars: Cbl-b-HiBit KI Jurkat Cells, incubated at least 6-24 hours; for DC50: half maximal degradation, read-out: Cbl-b Degredation Method B IC50; for Dmax / Cbl-b Degredation Method B Dmax (%): maximum degradation observed; for Dmax: read-out: Cbl-b Degredation Method B Dmax (%). The procedure, abridged: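 Cbl-b-HiBiT knock-in Jurkat cells (20,000/well) were treated after ~24 h plating with an 11-point 1:3 series for 6-24 h at 37° C. Remaining Cbl-b measured by Nano-Glo HiBiT lytic luminescence. DC50 and Dmax expressed as % of control.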
In general terms: HiBiT is a short tag that completes a luciferase, so light tracks the accessible tagged protein.

Test [2] concerns the target T1, Cbl-b. Put plainly: Cbl-b Degradation Method A (FACS, anti-Cbl-b antibody staining). It counts as cell-based. As to conditions: Cbl-b-HiBit KI Jurkat Cells, incubated at least 20 hours; for DC50: half maximal degradation, read-out: Cbl-b Degredation Method A IC50; for Dmax: Jurkat, maximum degradation observed, read-out: Cbl-b Degredation Method A Dmax (%). In short, it runs like this:
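Cbl-b-HiBit KI Jurkat cells treated with compound for at least 20 h at 37 °C, then fixed, permeabilized and stained with anti-Cbl-b antibody plus anti-rabbit AF488 secondary. Cbl-b levels read by FACS; DC50 and Dmax (percent of control) derived.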

Structures are written as SMILES.

One may read the Dmax as the largest share of the target that was removed.

T1 sequence (Q13191 whole entry): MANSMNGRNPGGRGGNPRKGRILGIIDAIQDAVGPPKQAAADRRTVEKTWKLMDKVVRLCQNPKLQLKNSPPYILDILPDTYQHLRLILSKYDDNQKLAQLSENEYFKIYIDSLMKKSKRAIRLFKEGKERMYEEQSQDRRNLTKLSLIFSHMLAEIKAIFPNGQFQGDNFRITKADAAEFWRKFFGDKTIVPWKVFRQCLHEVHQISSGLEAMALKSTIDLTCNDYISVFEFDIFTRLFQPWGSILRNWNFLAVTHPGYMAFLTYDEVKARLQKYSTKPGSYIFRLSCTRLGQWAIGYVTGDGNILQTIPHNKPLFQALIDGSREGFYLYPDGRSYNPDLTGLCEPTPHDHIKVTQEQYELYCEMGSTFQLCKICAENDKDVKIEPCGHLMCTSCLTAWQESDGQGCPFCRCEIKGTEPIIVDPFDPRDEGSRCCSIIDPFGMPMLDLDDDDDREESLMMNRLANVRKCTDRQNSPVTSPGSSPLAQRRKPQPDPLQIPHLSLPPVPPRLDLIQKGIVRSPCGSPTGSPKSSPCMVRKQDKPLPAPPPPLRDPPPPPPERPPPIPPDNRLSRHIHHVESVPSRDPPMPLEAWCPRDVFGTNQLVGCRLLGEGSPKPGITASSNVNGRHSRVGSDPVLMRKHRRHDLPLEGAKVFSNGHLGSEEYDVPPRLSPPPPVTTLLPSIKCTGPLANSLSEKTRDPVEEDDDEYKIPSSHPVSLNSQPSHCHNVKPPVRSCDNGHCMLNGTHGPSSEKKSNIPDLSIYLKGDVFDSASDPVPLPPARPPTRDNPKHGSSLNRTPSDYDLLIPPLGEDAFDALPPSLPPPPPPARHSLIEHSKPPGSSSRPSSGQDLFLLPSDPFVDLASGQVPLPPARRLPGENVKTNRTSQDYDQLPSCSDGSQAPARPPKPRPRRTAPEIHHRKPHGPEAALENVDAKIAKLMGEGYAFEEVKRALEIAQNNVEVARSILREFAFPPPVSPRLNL

Turning to `Cn1cnnc1CC1(c2cccc(N3Cc4c(cc(CN5CCC[C@H](CN6CCN(C[C@H]7CC[C@@H](OC8CCN(c9ccc%10c(c9Cl)CN(C9CCC(=O)NC9=O)C%10=O)CC8)CC7)CC6)C5)cc4C(F)(F)F)C3=O)c2)COC1` (stereo partly drawn) [Example 165, 3-[4-chloro-1-oxo-5-(4-{[(1r,4r)-4-[(4-{[(3S)-1-{[2-(3-{3-[(4-methyl-4H-1,2,4-triazol-3-yl)methyl]oxetan-3-yl}phenyl)-3-oxo-7-(trifluoromethyl)-2,3-dihydro-1H-isoindol-5-yl]methyl}piperidin-3-yl]methyl}piperazin-1-yl)methyl]cyclohexyl]oxy}piperidin-1-yl)-2,3-dihydro-1H-isoindol-2-yl]piperidine-2,6-dione], in test [1], the DC50 is less than 5 nM and the Dmax was greater than 70%. Also, in test [2], the DC50 is less than 5 nM and the Dmax is greater than 70%.

As to `Cn1cnnc1CC1(c2cccc(N3Cc4c(cc(CN5CCN(C[C@H]6CC[C@H](OC7CCN(c8cccc9c8n(C8CC8)c(=O)n9C8CCC(=O)NC8=O)CC7)CC6)CC5(C)C)cc4C(F)(F)F)C3=O)c2)CC(C#N)C1` (some centres unmarked) [Example 312, (1r**,3r**)-3-(3-{6-[(2,2-dimethyl-4-{[(1r*,4r*)-4-({1-[3-cyclopropyl-1-(2,6-dioxopiperidin-3-yl)-2-oxo-2,3-dihydro-1H-1,3-benzodiazol-4-yl]piperidin-4-yl}oxy)cyclohexyl]methyl}piperazin-1-yl)methyl]-1-oxo-4-(trifluoromethyl)-2,3-dihydro-1H-isoindol-2-yl}phenyl)-3-[(4-methyl-4H-1,2,4-triazol-3-yl)methyl]cyclobutane-1-carbonitrile], in test [1], the DC50 is less than 5 nM and the “Cbl-b Degredation Method B Dmax (%)” value was “C (C ≤ 35)”. Moreover, in test [2], the DC50 fell in the range of 50 to 500 nM and the greatest degradation seen (Dmax) was in the range of 35 to 70%.

Take `Cn1cnnc1CC1(c2cccc(N3Cc4c(cc(N5CCC(CN6CC7(CCN(c8ccc9c(c8)C(=O)N(C8CCC(=O)NC8=O)C9=O)CC7)C6)CC5)cc4C(F)(F)F)C3=O)c2)COC1` (centres unmarked) [Example 11, 2-(2,6-dioxo-3-piperidyl)-5-[2-[[1-[2-[3-[3-[(4-methyl-1,2,4-triazol-3-yl)methyl]oxetan-3-yl]phenyl]-3-oxo-7-(trifluoromethyl)isoindolin-5-yl]-4-piperidyl]methyl]-2,7-diazaspiro[3.5]nonan-7-yl]isoindoline-1,3-dione]: in test [1], the DC50 is 5 to 50 nM and the Dmax was less than 35%. Moreover, in test [2], the DC50 is 5 to 50 nM and the greatest degradation seen (Dmax) was less than 35%.

Regarding `CC(C)n1c(=O)n(C2CCC(=O)NC2=O)c2cccc(N3CCC(O[C@H]4CC[C@H](CN5CCC6(CCN(Cc7cc8c(c(C(F)(F)F)c7)CN(c7cccc([C@]9(Cc%10nncn%10C)C[C@@H](C#N)C9)c7)C8=O)CC6)CC5)CC4)CC3)c21` (some centres unmarked) [Example 317, (1r,3r)-3-[(4-methyl-4H-1,2,4-triazol-3-yl)methyl]-3-(3-{1-oxo-6-[(9-{[(1r,4r)-4-({1-[1-(2,6-dioxopiperidin-3-yl)-2-oxo-3-(propan-2-yl)-2,3-dihydro-1H-1,3-benzodiazol-4-yl]piperidin-4-yl}oxy)cyclohexyl]methyl}-3,9-diazaspiro[5.5]undecan-3-yl)methyl]-4-(trifluoromethyl)-2,3-dihydro-1H-isoindol-2-yl}phenyl)cyclobutane-1-carbonitrile], in test [1], the DC50 is less than 5 nM and the “Cbl-b Degredation Method B Dmax (%)” value is given as “C (C ≤ 35)”. For the same compound, in test [2], the DC50 was in the range of 50 to 500 nM and the Dmax was 35 to 70%.

On to `Cn1cnnc1CC1(c2cccc(N3Cc4c(cc(N5CC6(CCN(CC7CCN(c8cccc9c8CN(C8CCC(=O)NC8=O)C9=O)CC7)CC6)C5)cc4C(F)(F)F)C3=O)c2)COC1` (centres unmarked) [Example 119, 3-{4-[4-({2-[2-(3-{3-[(4-methyl-4H-1,2,4-triazol-3-yl)methyl]oxetan-3-yl}phenyl)-3-oxo-7-(trifluoromethyl)-2,3-dihydro-1H-isoindol-5-yl]-2,7-diazaspiro[3.5]nonan-7-yl}methyl)piperidin-1-yl]-1-oxo-2,3-dihydro-1H-isoindol-2-yl}piperidine-2,6-dione], for which the values for the DC50 in test [1] and in test [2] were less than 5 nM and 5 to 50 nM, respectively. Further, the Dmax in test [1] and in test [2] was less than 35% throughout.

On to `COc1c(N2CCC(O[C@H]3CC[C@H](CN4CCN(Cc5cc6c(c(C(F)(F)F)c5)CN(c5cccc([C@]7(Cc8nncn8C)C[C@@H](C#N)C7)c5)C6=O)CC4)CC3)CC2)ccc2c1CN(C1CCC(=O)NC1=O)C2=O` (some centres unmarked) [Example 199, (1r,3r)-3-[(4-methyl-4H-1,2,4-triazol-3-yl)methyl]-3-(3-{1-oxo-6-[(4-{[(1r,4r)-4-({1-[2-(2,6-dioxopiperidin-3-yl)-4-methoxy-1-oxo-2,3-dihydro-1H-isoindol-5-yl]piperidin-4-yl}oxy)cyclohexyl]methyl}piperazin-1-yl)methyl]-4-(trifluoromethyl)-2,3-dihydro-1H-isoindol-2-yl}phenyl)cyclobutane-1-carbonitrile], for which the DC50 in test [1] and in test [2] was less than 5 nM in each case. Moreover, the greatest degradation seen (Dmax) in test [1] was 35 to 70%; in test [2], greater than 70%.

For `Cn1cnnc1CC1(c2cccc(N3Cc4c(cc(N5CCC6(CC5)CN(CC5CCN(c7ccc8c(c7)C(=O)N(C7CCC(=O)NC7=O)C8=O)CC5)C6)cc4C(F)(F)F)C3=O)c2)COC1` (centres unmarked) [Example 135, 2-(2,6-dioxopiperidin-3-yl)-5-[4-({7-[2-(3-{3-[(4-methyl-4H-1,2,4-triazol-3-yl)methyl]oxetan-3-yl}phenyl)-3-oxo-7-(trifluoromethyl)-2,3-dihydro-1H-isoindol-5-yl]-2,7-diazaspiro[3.5]nonan-2-yl}methyl)piperidin-1-yl]-2,3-dihydro-1H-isoindole-1,3-dione], the figures for the DC50 in test [1] and in test [2] were greater than 500 nM and 50 to 500 nM, respectively.

Regarding `Cn1cnnc1CC1(c2cccc(N3Cc4c(cc(CN5CCN(C[C@H]6CC[C@H](OC7CCN(c8ccc9c(n8)CN(C8CCC(=O)NC8=O)C9=O)CC7)CC6)CC5)cc4C(F)(F)F)C3=O)c2)COC1` (some centres unmarked) [Example 112, 3-[5-oxo-2-(4-{[(1r,4r)-4-[(4-{[2-(3-{3-[(4-methyl-4H-1,2,4-triazol-3-yl)methyl]oxetan-3-yl}phenyl)-3-oxo-7-(trifluoromethyl)-2,3-dihydro-1H-isoindol-5-yl]methyl}piperazin-1-yl)methyl]cyclohexyl]oxy}piperidin-1-yl)-5H,6H,7H-pyrrolo[3,4-b]pyridin-6-yl]piperidine-2,6-dione], the DC50 in test [1] was less than 5 nM; in test [2], 5 to 50 nM. For the same compound, the Dmax in test [1] and in test [2] was 35 to 70% each time.

In the case of `Cn1cnnc1CC1(c2cccc(N3Cc4c(cc(CN5CCC(CN6CCN(c7cccc8c7C(=O)N(C7CCC(=O)NC7=O)C8=O)CC6)CC5)cc4C(F)(F)F)C3=O)c2)COC1` (centres unmarked) [Example 88, 2-(2,6-dioxopiperidin-3-yl)-4-(4-((1-((2-(3-(3-((4-methyl-4H-1,2,4-triazol-3-yl)methyl)oxetan-3-yl)phenyl)-3-oxo-7-(trifluoromethyl)isoindolin-5-yl)methyl)piperidin-4-yl)methyl)piperazin-1-yl)isoindoline-1,3-dione], the DC50 in test [1] and in test [2] was greater than 500 nM in each case.

Values taken from patent US20260184710A1, “CASITAS B-LINEAGE LYMPHOMA PROTOONCOGENE B (CBL-B) DEGRADING COMPOUNDS AND ASSOCIATED METHODS OF USE” (Arvinas Operations, Inc., priority 2022, published 2026).
